From US7442788B2, “Antisense molecules and method of controlling expression of gene function by using the same” (Japan Science and Technology Corporation, priority 2001, dated 2008)

System: d(C)8
Assay: Melting temperature (Tm) of homopurine PRNA-DNA complex
Type: binding

For “NH2-isoGln(5′I)-isoGln(5′I)-isoGln(5′I)-isoGln(5′I)-isoGln(5′I)-isoGln(5′I)-isoGln(5′I)-isoGln(5′I)-Lys-OH [NH2-IIIIIIII-Lys-OH]”, the Tm (binding target d(C)8, 20 mM borax) was under −5 °C and the Tm (binding target d(C)8, no additive) was 4.8 °C.
